Experimental data as given in patent US20220235325A1, “STIMULATION OF DENDRITIC CELL ACTIVITY BY HOMOTAURINE AND ANALOGUES THEREOF” (Therapeutic Solutions International, Inc., priority 2021, published 2022).

Tests used:
NK target cell line = assay: Natural killer cell activity of PBMC plated with StemVacs dendritic cells (flow cytometry Promega cytotoxicity assay); format: cell-based; conditions: 10 micrograms/ml; PBMC plus StemVacs umbilical cord derived dendritic cells; 12, 24, 36 hrs (FIG. 1)
Procedure: (§1) Peripheral blood mononuclear cells where obtained by ficoll centrifugation and plated with StemVacs umbilical cord derived dendritic cells. StemVacs was generated by culture of umbilical blood adherent cells with interleukin 4 and GM-CSF for 7 days with maturation step induced by 24 hour culture TLR agonist. Assessment of natural killer cell activity was performed subsequent to culture of cells with taurine (10 micrograms/ml) or homotaurine (10 micrograms/ml) for the indicated timepoints. Cytotoxicity against NK target cell line was performed using the flow cytometry Promega assay.

[1] = tested on: interferon gamma production; assay: T cell activity of PBMC plated with StemVacs dendritic cells (ELISA of interferon gamma after phytohemagglutinin); format: cell-based; conditions: 10 micrograms/ml; PBMC plus StemVacs; 5 micrograms per ml phytohemagglutinin; 12, 24, 36 hrs (FIG. 2)
Procedure: as §1, with “StemVacs” left out, “T” for “natural killer”, “T” for “Cytotoxicity against NK target”, “activity” for “line”, “assessed by ELISA quantification of interferon gamma production after stimulation with 5 micrograms per ml of phytohemagglutinin.” for “performed using the flow cytometry Promega assay.”

monocytes = conditions: cited from earlier work
[2] = monocytes from human peripheral blood

SMILES	Ability of StemVacs to stimulate NK activity (cytotoxicity against NK target cell line) (NK target cell line)	Ability of StemVacs to stimulate T cell activity (interferon gamma production) [1]	FcgammaR-mediated cytokine production and antibody-dependent cellular cytotoxicity by monocytes (monocytes; 12 hour exposure)	Expression of ADCC associated receptors FcgammaRI, FcgammaRIIa and common gamma-subunit (monocytes; [2])	Expression of the inhibitory FcgammaRIth molecule (monocytes; [2])
NCCCS(=O)(=O)O [Homotaurine, homotaurine]	Increases Ability of StemVacs to Stimulate NK Activity	Increases Ability of StemVacs to Stimulate T Cell Activity			
CCOCc1nc2c(N)nc3ccccc3c2n1CC(C)(C)O [R-848]			increased	upregulation	profound downregulation
